molecular target: T1, human thrombopoietin receptor (c-mpl) (Homo sapiens, UniProt P40238); assay: Stimulation of proliferation of thrombopoietin-dependent cell line UT7/EPO-mpl (WST-8); type: cell-based; conditions: concentration yielding growth rate corresponding to 50% of growth of UT-7/EPO-mpl in the presence of 10 ng/mL TPO; 4 days incubation, WST-8
T1 construct: expressed in transfected cells
T1 sequence (P40238 26-635): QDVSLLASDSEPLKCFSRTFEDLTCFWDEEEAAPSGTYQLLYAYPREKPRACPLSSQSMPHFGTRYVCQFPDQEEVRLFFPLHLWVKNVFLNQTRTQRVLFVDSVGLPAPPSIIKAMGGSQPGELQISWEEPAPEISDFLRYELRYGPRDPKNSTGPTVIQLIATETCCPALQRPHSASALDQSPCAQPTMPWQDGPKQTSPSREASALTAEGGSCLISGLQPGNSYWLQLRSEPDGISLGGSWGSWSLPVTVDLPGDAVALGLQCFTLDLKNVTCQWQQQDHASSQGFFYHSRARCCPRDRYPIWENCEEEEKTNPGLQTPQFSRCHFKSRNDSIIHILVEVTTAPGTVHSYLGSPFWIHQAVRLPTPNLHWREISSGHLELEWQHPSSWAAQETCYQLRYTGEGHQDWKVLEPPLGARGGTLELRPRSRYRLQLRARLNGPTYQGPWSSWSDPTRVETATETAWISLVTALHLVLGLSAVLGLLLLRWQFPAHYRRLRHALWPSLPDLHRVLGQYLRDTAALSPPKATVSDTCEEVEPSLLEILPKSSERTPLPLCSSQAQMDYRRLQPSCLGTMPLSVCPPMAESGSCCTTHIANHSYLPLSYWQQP
Method: The responses of thrombopoietin receptor to the compounds of Synthetic Examples of the present invention were assayed using a human leukemic cell line, UT7/EPO-mpl.
UT7/EPO-mpl is a stable transformed cell line obtained by introducing into human leukemic cell line UT7/EPO a vector that induces expression of human thrombopoietin receptor (c-mpl) under control of cytomegalovirus immediate-early promoter by the method of Takatoku et al. (J. Biol. Chem., 272:7259-7263 (1997)). […] These two cell lines were subcultured in IMDM (Invitrogen) containing 10% fetal bovine serum (Thermo Electron or BioWest) using a CO2 incubator (5% CO2, 37° C.).
The subcultured cells described above were washed twice with PBS and suspended in IMDM containing 10% fetal bovine serum at a cell density of 6×10^4 cells/ml. The cell suspension was transferred to a 96-well tissue culture plate (CORNING) in 100-μl aliquots. Then either thrombopoietin (Pepro Tech EC) or the compound of Synthetic Examples dissolved in dimethyl sulfoxide were diluted 83-fold with IMDM containing 10% fetal bovine serum and added to the aforementioned cell suspension in 20-μl aliquots. The cell suspension was incubated in a CO2 incubator (5% CO2, 37° C.) for 4 days. Cell proliferation was assayed using WST-8 reagent (Kishida Chemical Co., Ltd.) according to instructions by the manufacturer. A 10-μl aliquot of 5 mM WST-8 reagent solution was added to each well of the tissue culture plate, and the plate was incubated at 37° C. for 4 hours. The formazan pigment generated was detected by measuring the absorbance at 450 nm with a 96-well microplate reader (Nihon Molecular Devices, Spectramax 190).

| SMILES | EC50 [nM] |
| --- | --- |
| C/C(=N\NC(=S)Nc1cccc(-c2nnn[nH]2)c1)c1csc(-c2ccc3c(c2)CCC3)c1O [compound 63] | 3.99 |
| COC(=O)c1ccc(C(=O)N/N=C(\C)c2csc(-c3ccc4c(c3)CCC4)c2O)cc1 [compound 31] | 52.9 |
| C/C(=N\NC(=O)c1ccc(C(=O)NCc2ccncc2)s1)c1csc(-c2ccc3c(c2)CCCC3)c1O [compound 32] | 0.452 |
| C/C(=N\NC(=O)c1ccc(C(=O)NCc2ccncc2)s1)c1csc(-c2ccc3c(c2)CCC3)c1O [compound 25] | 0.523 |
| C/C(=N\NC(=S)Nc1ccc(C(=O)O)cc1)c1nn(C)c(-c2ccc3c(c2)CCC3)c1O [compound 13] | 59.2 |
| C/C(=N\NC(=O)c1ccc(C(=O)O)s1)c1csc(-c2ccc3c(c2)CCCC3)c1O [compound 53] | 1.25 |
| COC(=O)C1CCN(C(=S)N/N=C(\C)c2csc(-c3ccc4c(c3)CCCC4)c2O)CC1 [compound 42] | 48.8 |
| C/C(=N\NC(=S)Nc1cccc(-c2nnn[nH]2)c1)c1csc(-c2ccc3c(c2)CCO3)c1O [compound 65] | 5.65 |
| C/C(=N\NC(=S)N1CCC(C(=O)O)CC1)c1csc(-c2ccc3c(c2)CCCC3)c1O [compound 52] | 3.71 |
| C/C(=N\NC(=O)c1ccc(C(=O)O)cc1)c1csc(-c2ccc3c(c2)CCO3)c1O [compound 46] | 94.7 |
| COC(=O)C1CCN(C(=S)N/N=C(\C)c2csc(-c3ccc4c(c3)CCC4)c2O)CC1 [compound 40] | 52.4 |
| C/C(=N\NC(=O)c1ccc(C(=O)O)s1)c1nn(C)c(-c2ccc3c(c2)CCC3)c1O [compound 10] | 45.5 |
| C/C(=N\NC(=O)c1ccc(C(=O)NCCc2ccncc2)s1)c1csc(-c2ccc3c(c2)CCC3)c1O [compound 26] | 0.867 |
| C/C(=N\NC(=S)Nc1ccc(C(=O)O)c(Cl)c1)c1csc(-c2ccc3c(c2)CCO3)c1O [compound 39] | 43 |
| C/C(=N\NC(=O)c1ccc(-c2nnn[nH]2)cc1)c1csc(-c2ccc3c(c2)CCC3)c1O [compound 68] | 22.5 |
| C/C(=N\NC(=O)c1ccc(-c2nnn[nH]2)cc1)c1csc(-c2ccc3c(c2)CCCC3)c1O [compound 67] | 5.23 |
| COC(=O)c1ccc(C(=O)N/N=C(\C)c2nn(C)c(-c3ccc4c(c3)CCC4)c2O)cc1 [compound 7] | 43 |
| C/C(=N\NC(=S)N1CCC(C(=O)O)CC1)c1csc(-c2ccc3c(c2)CCC3)c1O [compound 48] | 4.06 |
| CCN(CC)C(=O)c1ccc(C(=O)N/N=C(\C)c2csc(-c3ccc4c(c3)CCCC4)c2O)s1 [compound 33] | 4.84 |
| C/C(=N\NC(=S)Nc1ccc(-c2nnn[nH]2)cc1)c1csc(-c2ccc3c(c2)CCC3)c1O [compound 64] | 4.42 |

| SMILES | EC50 [nM] |
| --- | --- |
| C/C(=N\NC(=S)Nc1ccc(-c2nnn[nH]2)cc1)c1csc(-c2ccc3c(c2)CCCC3)c1O [compound 62] | 4.08 |
| C/C(=N\NC(=O)c1ccc(C(=O)NCc2ccncc2)s1)c1csc(-c2ccc3c(c2)CCO3)c1O [compound 18] | 5.4 |
| C/C(=N\NC(=O)c1ccc(C(=O)O)c([N+](=O)[O-])c1)c1csc(-c2ccc3c(c2)CCCC3)c1O [compound 55] | 0.396 |
| C/C(=N\NC(=O)c1ccc(C(=O)NCCc2ccncc2)s1)c1csc(-c2ccc3c(c2)CCO3)c1O [compound 19] | 30 |
| COC(=O)c1ccc(C(=O)N/N=C(\C)c2csc(-c3ccc4c(c3)CCC4)c2O)s1 [compound 30] | 18.8 |
| C/C(=N\NC(=S)Nc1ccc(C(=O)O)cc1)c1csc(-c2ccc3c(c2)CCCC3)c1O [compound 60] | 5.8 |
| C/C(=N\NC(=S)Nc1ccc(C(=O)O)c(Cl)c1)c1csc(-c2ccc3c(c2)CCC3)c1O [compound 41] | 6.79 |
| C/C(=N\NC(=S)N1CCC(C(=O)O)CC1)c1nn(C)c(-c2ccc3c(c2)CCC3)c1O [compound 9] | 76.5 |
| C/C(=N\NC(=O)c1ccc(C(=O)O)cc1)c1csc(-c2ccc3c(c2)CCC3)c1O [compound 50] | 1.76 |
| C/C(=N\NC(=O)c1ccc(C(=O)O)c([N+](=O)[O-])c1)c1csc(-c2ccc3c(c2)CCC3)c1O [compound 51] | 0.451 |
| C/C(=N\NC(=O)c1ccc(C(=O)NCc2ccc(C(=O)NCCO)cc2)s1)c1csc(-c2ccc3c(c2)CCC3)c1O [compound 70] | 0.382 |
| C/C(=N\NC(=S)Nc1cccc(C(=O)O)c1)c1csc(-c2ccc3c(c2)CCCC3)c1O [compound 17] | 49.4 |
| C/C(=N\NC(=S)Nc1ccc(C(=O)O)c(Cl)c1)c1csc(-c2ccc3c(c2)CCCC3)c1O [compound 43] | 4.8 |
| COC(=O)C1CCN(C(=S)N/N=C(\C)c2nn(C)c(-c3ccc4c(c3)CCC4)c2O)CC1 [compound 8] | 99.4 |
| C/C(=N\NC(=O)c1ccc(C(=O)N2CCCC2)s1)c1csc(-c2ccc3c(c2)CCCC3)c1O [compound 34] | 2.43 |
| C/C(=N\NC(=O)c1ccc(C(=O)O)cc1)c1csc(-c2ccc3c(c2)CCCC3)c1O [compound 54] | 2.99 |
| COC(=O)c1ccc(C(=O)N/N=C(\C)c2csc(-c3ccc4c(c3)CCCC4)c2O)s1 [compound 36] | 9.46 |
| C/C(=N\NC(=O)c1ccc(C(=O)O)cc1)c1nn(C)c(-c2ccc3c(c2)CCC3)c1O [compound 11] | 57.6 |
| C/C(=N\NC(=S)Nc1cccc(-c2nnn[nH]2)c1)c1csc(-c2ccc3c(c2)CCCC3)c1O [compound 61] | 4.08 |
| C/C(=N\NC(=S)Nc1cccc(C(=O)O)c1)c1nn(C)c(-c2ccc3c(c2)CCC3)c1O [compound 14] | 22.7 |

| SMILES | EC50 [nM] |
| --- | --- |
| C/C(=N\NC(=S)Nc1ccc(C(=O)O)c(Cl)c1)c1nn(C)c(-c2ccc3c(c2)CCC3)c1O [compound 15] | 12.8 |
| C/C(=N\NC(=O)c1ccc(C(=O)N2CCCC2)s1)c1csc(-c2ccc3c(c2)CCC3)c1O [compound 28] | 5.84 |
| C/C(=N\NC(=O)c1ccc(C(=O)O)s1)c1csc(-c2ccc3c(c2)CCC3)c1O [compound 49] | 3.28 |
| C/C(=N\NC(=S)Nc1ccc(-c2nnn[nH]2)cc1)c1csc(-c2ccc3c(c2)CCO3)c1O [compound 66] | 8.79 |
| C/C(=N\NC(=O)c1ccc(C(=O)N2CCCC2)s1)c1csc(-c2ccc3c(c2)CCO3)c1O [compound 21] | 99.7 |
| CCN(CC)C(=O)c1ccc(C(=O)N/N=C(\C)c2csc(-c3ccc4c(c3)CCC4)c2O)s1 [compound 27] | 6.44 |
| C/C(=N\NC(=O)c1ccc(C(=O)O)c([N+](=O)[O-])c1)c1nn(C)c(-c2ccc3c(c2)CCC3)c1O [compound 12] | 1.73 |
| COC(=O)c1ccc(C(=O)N/N=C(\C)c2nn(C)c(-c3ccc4c(c3)CCC4)c2O)cc1[N+](=O)[O-] [compound 5] | 11.7 |
| C/C(=N\NC(=O)c1ccc(C(=O)NCCc2ccncc2)s1)c1csc(-c2ccc3c(c2)CCCC3)c1O [compound 16] | 0.496 |
| C/C(=N\NC(=O)c1ccc(C(=O)NCCc2ccncc2)s1)c1nn(C)c(-c2ccc3c(c2)CCC3)c1O [compound 2] | 3.4 |
| C/C(=N\NC(=O)c1ccc(C(=O)NCc2ccc(C(=O)NCCO)cc2)s1)c1csc(-c2ccc3c(c2)CCO3)c1O [compound 71] | 3.97 |
| COC(=O)c1ccc(C(=O)N/N=C(\C)c2csc(-c3ccc4c(c3)CCCC4)c2O)cc1 [compound 37] | 40.1 |
| COC(=O)c1ccc(C(=O)N/N=C(\C)c2csc(-c3ccc4c(c3)CCC4)c2O)cc1[N+](=O)[O-] [compound 29] | 12.9 |
| CCN(CC)C(=O)c1ccc(C(=O)N/N=C(\C)c2nn(C)c(-c3ccc4c(c3)CCC4)c2O)s1 [compound 3] | 70.3 |
| C/C(=N\NC(=S)Nc1ccc(C(=O)O)cc1)c1csc(-c2ccc3c(c2)CCC3)c1O [compound 58] | 5.76 |
| C/C(=N\NC(=O)c1ccc(C(=O)N2CCCC2)s1)c1nn(C)c(-c2ccc3c(c2)CCC3)c1O [compound 4] | 11.1 |
| COC(=O)c1ccc(C(=O)N/N=C(\C)c2nn(C)c(-c3ccc4c(c3)CCC4)c2O)s1 [compound 6] | 18.9 |
| C/C(=N\NC(=O)c1ccc(C(=O)O)c([N+](=O)[O-])c1)c1csc(-c2ccc3c(c2)CCO3)c1O [compound 47] | 55.6 |
| C/C(=N\NC(=S)Nc1ccc(C(=O)O)cc1)c1csc(-c2ccc3c(c2)CCO3)c1O [compound 56] | 57.3 |

Source: patent publication US8889732B2, “Fused heterocyclic compounds and thrombopoietin receptor activators” (Nissan Chemical Industries, Ltd., priority 2009, dated 2014)
